Legend:
A549 pERK = assay: A549-pERK, 2 h (quantitative Western, Jess); format: cell-based; details: Homo sapiens, A549, 2 h, phospho:total ratio normalized to DMSO control; for activity at 0.01 µM: 10 nM
Experimental: (§1) A549 or […] cells were treated in duplicate for two hours with compounds at varying concentrations. After two hours, the cells were lysed, snap frozen, and stored at −80° C. After storage, the lysate was quantified with the Bradford assay. Before the lysates were prepared to run on the Jess, the lysates were diluted to 1 mg/mL for pERK analysis and 1.5 mg/mL pMEK analysis using quantitative Western blotting. ERK and MEK phosphorylation levels were estimated by taking the ratio of phospho-protein to total protein and normalizing to the DMSO control. The results of this study are described in Tables 14-16.

[1] = test system: A549 CRAF BP (MEK phosphorylation); assay: A549-CRAF BP 100 nM, 2 h (pMEK); format: cell-based; details: Homo sapiens, A549, 2 h, phospho:total ratio normalized to DMSO control
Experimental: as §1

Plasma stability, human = format: in vitro ADME; details: 2 μM
[2] = Plasma stability, beagle dog; format: in vitro ADME; details: 2 μM
[3] = Plasma stability, CD-1 mouse; format: in vitro ADME; details: 2 μM
CYP450 2C19 = CYP450 2C19 (Homo sapiens, UniProt P33261); assay: CYP450 panel, 2C19; details: 10 μM; substrate mephenytoin
[4] = Absorption & efflux: Caco-2 permeability; details: human

Chain of CYP450 2C19 (P33261 whole entry): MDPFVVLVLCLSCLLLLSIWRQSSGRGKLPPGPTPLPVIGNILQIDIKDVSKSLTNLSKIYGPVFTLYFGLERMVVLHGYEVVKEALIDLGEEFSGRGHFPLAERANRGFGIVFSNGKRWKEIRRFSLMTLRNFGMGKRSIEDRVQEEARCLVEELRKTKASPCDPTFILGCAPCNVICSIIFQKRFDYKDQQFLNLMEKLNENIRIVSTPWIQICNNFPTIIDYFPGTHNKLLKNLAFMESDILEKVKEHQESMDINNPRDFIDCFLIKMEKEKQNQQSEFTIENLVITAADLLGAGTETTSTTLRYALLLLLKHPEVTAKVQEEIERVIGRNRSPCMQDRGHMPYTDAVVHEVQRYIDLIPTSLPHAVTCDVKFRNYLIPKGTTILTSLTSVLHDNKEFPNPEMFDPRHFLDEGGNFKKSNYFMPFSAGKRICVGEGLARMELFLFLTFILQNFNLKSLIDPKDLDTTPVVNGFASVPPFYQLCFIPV

Row | Compound | activity at 0.01 µM (A549 pERK) [%] | activity at 0.1 µM [1] [%] | also measured
1 | CNS(=O)(=O)Nc1cccc(Cc2c(CN3CCNCC3)c3cc(Cl)c(OC(=O)N(C)C)cc3oc2=O)c1F [Compound 21] | 20.4 | 47.9 | –
2 | CNS(=O)(=O)Nc1cccc(Cc2c(CN(C)C)c3cc(Cl)c(OC(=O)N(C)C)cc3oc2=O)c1F [Compound 24] | 42.4 | 55.9 | –
3 | CNS(=O)(=O)Nc1cccc(Cc2c(CN(C)C)c3cc(F)c(OC(=O)N(C)C)cc3oc2=O)c1F [Compound 25] | 66.2 | 71 | –
4 | CNS(=O)(=O)Nc1cccc(Cc2c(CNCC#N)c3ccc(OC(=O)N(C)C)cc3oc2=O)c1F [Compound 33] | 55.4 | 51.4 | –
5 | CCN(CC)Cc1c(Cc2cccc(NS(=O)(=O)NC)c2F)c(=O)oc2cc(OC(=O)N(C)C)ccc12 [Compound 73] | 77.7 | 33.9 | –
6 | CNS(=O)(=O)Nc1cccc(Cc2c(CN3CC(OC)C3)c3ccc(OC(=O)N(C)C)cc3oc2=O)c1F [Compound 74] | 75.3 | 59.2 | –
7 | CNS(=O)(=O)Nc1cccc(Cc2c(CNCC(F)(F)F)c3ccc(OC(=O)N(C)C)cc3oc2=O)c1F [Compound 75] | – | 66.5 | –
8 | CNS(=O)(=O)Nc1cccc(Cc2c(CN(C)CC(C)C)c3ccc(OC(=O)N(C)C)cc3oc2=O)c1F [Compound 78] | 78.6 | 64.2 | –
9 | CNS(=O)(=O)Nc1cccc(Cc2c(CN(C)c3ccccc3)c3ccc(OC(=O)N(C)C)cc3oc2=O)c1F [Compound 79] | – | 45.2 | –
10 | CNS(=O)(=O)Nc1cccc(Cc2c(CN(C)Cc3ccccc3)c3ccc(OC(=O)N(C)C)cc3oc2=O)c1F [Compound 80] | 56.4 | 56.1 | –
11 | CCCN(C)Cc1c(Cc2cccc(NS(=O)(=O)NC)c2F)c(=O)oc2cc(OC(=O)N(C)C)ccc12 [Compound 81] | 57.6 | 78.3 | –
12 | CNS(=O)(=O)Nc1cccc(Cc2c(CN(C)C3CC3)c3ccc(OC(=O)N(C)C)cc3oc2=O)c1F [Compound 82] | 64.9 | 72.3 | –
13 | CNS(=O)(=O)Nc1cccc(Cc2c(CN(C)CC3CC3)c3ccc(OC(=O)N(C)C)cc3oc2=O)c1F [Compound 84] | 83.2 | 87.3 | –
14 | CNS(=O)(=O)Nc1cccc(Cc2c(CN(C)C3CCC3)c3ccc(OC(=O)N(C)C)cc3oc2=O)c1F [Compound 86] | 96.4 | 53.2 | –
15 | CNS(=O)(=O)Nc1cccc(Cc2c(CN(C)CC#N)c3ccc(OC(=O)N(C)C)cc3oc2=O)c1F [Compound 87] | 63.8 | 95.8 | –
16 | CNS(=O)(=O)Nc1cccc(Cc2c(CN(C)CC3CCC3)c3ccc(OC(=O)N(C)C)cc3oc2=O)c1F [Compound 88] | 142 | 53.6 | –
17 | CNS(=O)(=O)Nc1cccc(Cc2c(CNc3ccsc3)c3ccc(OC(=O)N(C)C)cc3oc2=O)c1F [Compound 90] | 72.4 | 71 | –
18 | CNS(=O)(=O)Nc1cccc(Cc2c(CNc3cncs3)c3ccc(OC(=O)N(C)C)cc3oc2=O)c1F [Compound 91] | 74.6 | 84.2 | –
19 | CNS(=O)(=O)Nc1cccc(Cc2c(CN(C)c3ccc(Cl)cc3)c3ccc(OC(=O)N(C)C)cc3oc2=O)c1F [Compound 97] | 56.5 | 52.1 | –
20 | CCS(=O)(=O)Nc1cccc(Cc2c(C)c3ccc(OC(=O)N(C)C)cc3oc2=O)c1F [Compound 107] | 18 | 39.9 | –
21 | CNS(=O)(=O)Nc1cccc(Cc2c(C)c3cc(C)c(OC(=O)N(C)C)cc3oc2=O)c1F [Compound 108] | 5.78 | 47.9 | –
22 | CNS(=O)(=O)Nc1cccc(Cc2c(C)c3cc(Cl)c(OC(=O)N(C)C)cc3oc2=O)c1F [Compound 109] | 4.51 | 41.9 | –
23 | CNS(=O)(=O)Nc1nccc(Cc2c(C)c3cc(C)c(OC(=O)N(C)C)cc3oc2=O)c1F [Compound 110] | 5.92 | 56.6 | –
24 | CNS(=O)(=O)Nc1nccc(Cc2c(C)c3cc(Cl)c(OC(=O)N(C)C)cc3oc2=O)c1F [Compound 111] | 4.63 | 48.6 | –

Row | Compound | activity at 0.01 µM (A549 pERK) [%] | activity at 0.1 µM [1] [%] | also measured
25 | Cc1c(Cc2ccnc(NS(=O)(=O)C3CC3)c2F)c(=O)oc2cc(OC(=O)N(C)C)ccc12 [Compound 112] | 46.3 | 52.9 | –
26 | Cc1c(Cc2cccc(NS(=O)(=O)C3CC3)c2F)c(=O)oc2cc(OC(=O)N(C)C)ccc12 [Compound 113] | 24.7 | 48 | –
27 | Cc1c(Cc2ccnc(NS(=O)(=O)C(C)C)c2F)c(=O)oc2cc(OC(=O)N(C)C)ccc12 [Compound 114] | 36.6 | 59.9 | –
28 | Cc1c(Cc2cccc(NS(=O)(=O)C(C)C)c2F)c(=O)oc2cc(OC(=O)N(C)C)ccc12 [Compound 115] | 13.5 | 39.2 | –
29 | Cc1c(Cc2cccc(NS(=O)(=O)C3CCC3)c2F)c(=O)oc2cc(OC(=O)N(C)C)ccc12 [Compound 118] | 21.1 | 39.1 | –
30 | CCS(=O)(=O)Nc1nccc(Cc2c(C)c3ccc(OC(=O)N(C)C)cc3oc2=O)c1F [Compound 119] | 64.8 | 66.1 | –
31 | Cc1c(Cc2ccnc(NS(=O)(=O)C3CCC3)c2F)c(=O)oc2cc(OC(=O)N(C)C)ccc12 [Compound 125] | 54.4 | 41.7 | –
32 | CNS(=O)(=O)Nc1cccc(Cc2c(CN(C)C)c3ccc(OC(=O)N4CCC4)cc3oc2=O)c1F [Compound 128] | 66.3 | 37.7 | –
33 | CCS(=O)(=O)Nc1cccc(Cc2c(CN(C)C)c3cc(Cl)c(OC(=O)N(C)C)cc3oc2=O)c1F [Compound 132] | 62.6 | 57.8 | –
34 | CNS(=O)(=O)Nc1nccc(Cc2c(CN(C)C)c3cc(F)c(OC(=O)N(C)C)cc3oc2=O)c1F [Compound 140] | 65 | 70.3 | –
35 | CCS(=O)(=O)Nc1cccc(Cc2c(CN3CCNCC3)c3cc(Cl)c(OC(=O)N(C)C)cc3oc2=O)c1F [Compound 147] | 21.7 | 46.4 | –
36 | CCS(=O)(=O)Nc1nccc(Cc2c(CN(C)C)c3ccc(OC(=O)N(C)C)cc3oc2=O)c1F [Compound 148] | 49.6 | 56.5 | –
37 | CN(C)C(=O)Oc1ccc2c(CN3CCNCC3)c(Cc3ccnc(NS(=O)(=O)C4CC4)c3F)c(=O)oc2c1 [Compound 150] | 47.4 | 90.2 | –
38 | CNS(=O)(=O)Nc1cccc(Cc2c(CN3CC4(CCC4)C3)c3ccc(OC(=O)N(C)C)cc3oc2=O)c1F [Compound 153] | 50.2 | 54.1 | –
39 | C#CCNCCc1c(Cc2cccc(NS(=O)(=O)NC)c2F)c(=O)oc2cc(OC(=O)N(C)C)ccc12 [Compound 183] | 32.4 | 65.9 | activity at 10 µM (A549 pERK): 0.82%
40 | CNS(=O)(=O)Nc1cccc(Cc2c(CC(=O)N3CC(OC)C3)c3ccc(OC(=O)N(C)C)cc3oc2=O)c1F [Compound 216] | 89.5 | – | activity at 10 µM (A549 pERK): 4.51%
41 | CNS(=O)(=O)Nc1cccc(Cc2c(CNCC(=O)N(C)CC#N)c3ccc(OC(=O)N(C)C)cc3oc2=O)c1F [Compound 217] | 96.7 | – | activity at 10 µM (A549 pERK): 11.2%
42 | C#CCNC(=O)CNCc1c(Cc2cccc(NS(=O)(=O)NC)c2F)c(=O)oc2cc(OC(=O)N(C)C)ccc12 [Compound 218] | 113 | – | activity at 10 µM (A549 pERK): 9.46%
43 | CNS(=O)(=O)Nc1cccc(Cc2c(CNCC(=O)N(C)c3ccccc3)c3ccc(OC(=O)N(C)C)cc3oc2=O)c1F [Compound 220] | 109 | – | activity at 10 µM (A549 pERK): 4.28%
44 | CNS(=O)(=O)Nc1cccc(Cc2c(CNCC(=O)Nc3ccccc3)c3ccc(OC(=O)N(C)C)cc3oc2=O)c1F [Compound 223] | 119 | – | activity at 10 µM (A549 pERK): 3.04%
45 | CC[C@H](C)C(=O)O[C@H]1C[C@@H](C)C=C2C=C[C@H](C)[C@H](CC[C@@H]3C[C@@H](O)CC(=O)O3)[C@H]21 [Lovastatin] | – | – | Human (% Reamining @2 hour) (Plasma stability, human): 81.8%; Beagle Dog (% Reamining @2 hour) [2]: 94.1%; CD-1 Mouse (% Reamining @2 hour) [3]: 0.6%
46 | COc1ccc2[nH]c([S+]([O-])Cc3ncc(C)c(OC)c3C)nc2c1 (centres unmarked) [Omeprazole] | – | – | 2C19* (CYP450 2C19): 61.6
47 | CC(C)[N+](C)(CCOC(=O)C1c2ccccc2Oc2ccccc21)C(C)C [Propantheline] | – | – | Human (% Reamining @2 hour) (Plasma stability, human): 5.7%; Beagle Dog (% Reamining @2 hour) [2]: 58.4%; CD-1 Mouse (% Reamining @2 hour) [3]: 27.1%
48 | CNC(=C[N+](=O)[O-])NCCSCc1ccc(CN(C)C)o1 [Ranitidine] | – | – | Papp A→B at 2 h, 10 μM [4]: < 1 ×10⁻⁶ cm/s

From patent publication US20250270180A1, “MEK INHIBITORS AND THERAPEUTIC USES THEREOF” (Immuneering Corporation, priority 2020, published 2025)
